Test results reported in patent publication US20240150293A1, “SPIROCYCLOHEXANE DERIVATIVES, PHARMACEUTICAL COMPOSITIONS CONTAINING THEM AND THEIR USES AS ANTI-APOPTOTIC INHIBITORS” (LES LABORATOIRES SERVIER, priority 2021, published 2024).
Read-outs that look alike come from different tables or passages of the source.

Experiments:
[1] = target: Cy5-labelled Mcl1 (amino acids 171-321) C286S protein (UniProtKB Q07820) (Homo sapiens (Human), UniProt Q07820, C286S); experiment: Inhibition of Mcl-1 by the fluorescence quenching assay (Example A, Method B); format: binding
Outline: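 Cy5-labelled Mcl1 171-321 C286S (1 nM) quenched by TQ5WS-labelled PUMA peptide (10, 20 or 400 nM); displacement raises fluorescence (Ex 620/Em 680 nm). Buffer 10 mM HEPES, 150 mM NaCl, 0.05% Tween 20, pH 7.4, 5% DMSO; 2 h at room temperature, 11-point curves, IC50 converted to Ki (cKi/eKi).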

NCI-H929 cell lines = experiment: In vitro cytotoxicity, CellTiter-Glo (CTG) assay (Example B, Method B); format: cell-based; settings: NCI-H929 cells, 48 h incubation, read-out: C50
Outline: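 NCI-H929 cells exposed to an 11-point compound series from 10 mM DMSO stocks (top final 30 μM) for 48 h at 37° C., 5% CO2. Viability measured as ATP by CellTiter-Glo luminescence; C50 is the concentration giving 50% cellular viability.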

Chain of Cy5-labelled Mcl1 (amino acids 171-321) C286S protein (Q07820 171-321 C286S): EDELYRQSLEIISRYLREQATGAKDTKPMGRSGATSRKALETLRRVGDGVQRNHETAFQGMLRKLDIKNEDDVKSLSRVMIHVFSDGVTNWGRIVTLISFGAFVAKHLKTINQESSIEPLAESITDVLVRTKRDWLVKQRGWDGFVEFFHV

Row | SMILES | Ki [1] [nM] | IC50 (NCI-H929 cell lines; Homo sapiens, NCI-H929, 48 h) [nM] | Ki ([1]; Ki determined from IC50) [nM] | IC50 (NCI-H929 cell lines) [nM]
1 | C[C@@H](COc1ccnc2c1[C@@H](C)CCC2)C[C@@H]1Cc2cc3c(cc2[C@]12CC[C@@](Nc1cccc(Cl)c1)(C(=O)O)CC2)OCO3 [Example 843, (1r,4R,6′R)-4-(3-chloroanilino)-6′-[(2R)-2-methyl-3-{[(5S)-5-methyl-5,6,7,8-tetrahydroquinolin-4-yl]oxy}propyl]-6′,7′-dihydro-2′H-spiro[cyclohexane-1,5′-indeno[5,6-d][1,3]dioxole]-4-carboxylic acid] | 3.58 | 1380 |  | 
2 | C[C@@H](COc1ccnc2c1[C@H](C)CCC2)C[C@H]1Cc2cc3c(cc2[C@]12CC[C@@](Nc1cccc(Cl)c1)(C(=O)O)CC2)OC(F)(F)O3 [Example 849, (1r,4S,6′S)-4-(3-chloroanilino)-2′,2′-difluoro-6′-[(2R)-2-methyl-3-{[(5R)-5-methyl-5,6,7,8-tetrahydroquinolin-4-yl]oxy}propyl]-6′,7′-dihydro-2′H-spiro[cyclohexane-1,5′-indeno[5,6-d][1,3]dioxole]-4-carboxylic acid] | 0.228 | 90.5 |  | 
3 | C[C@@H](COc1ccnc2c1[C@H](C)CCC2)CN1Cc2cc3c(cc2[C@]12CC[C@](Nc1cccc(Cl)c1)(C(=O)O)CC2)OCO3 [Example 45, (1r,4R)-4-(3-chloroanilino)-6′-[(2R)-2-methyl-3-{[(5R)-5-methyl-5,6,7,8-tetrahydroquinolin-4-yl]oxy}propyl]-6′,7′-dihydro-2′H-spiro[cyclohexane-1,5′-[1,3]dioxolo[4,5-f]isoindole]-4-carboxylic acid] |  | 24200 | 300 | 
4 | C[C@@H](COc1ccnc2c1[C@H](C)CCC2)C[C@H]1Cc2cc3c(cc2[C@]12CC[C@@](Nc1cccc(Cl)c1)(C(=O)O)CC2)OCC[C@@H](C)O3 [Example 986, (1r,2′R,4S,8′S)-4-(3-chloroanilino)-2′-methyl-8′-[(2R)-2-methyl-3-{[(5R)-5-methyl-5,6,7,8-tetrahydroquinolin-4-yl]oxy}propyl]-3′,4′,8′,9′-tetrahydro-2′H-spiro[cyclohexane-1,7′-indeno[5,6-b][1,4]dioxepine]-4-carboxylic acid] | 0.0342 | 86.9 |  | 
5 | C[C@@H](COc1ccnc2c1[C@H](C)CCC2)C[C@H]1Cc2cc3c(cc2[C@]12CC[C@@](Nc1cccc(Cl)c1)(C(=O)OCOC(=O)C(C)(C)C)CC2)OCO3 [Example 942, [(2,2-dimethylpropanoyl)oxy]methyl (1r,4S,6′S)-4-(3-chloroanilino)-6′-[(2R)-2-methyl-3-{[(5R)-5-methyl-5,6,7,8-tetrahydroquinolin-4-yl]oxy}propyl]-6′,7′-dihydro-2′H-spiro[cyclohexane-1,5′-indeno[5,6-d][1,3]dioxole]-4-carboxylate] | 15.5 | 222 |  | 
6 | CCOc1cc2c(cc1Br)C[C@H](C[C@@H](C)COc1ccnc3c1[C@H](C)CCC3)[C@]21CC[C@](Nc2cccc(Cl)c2)(C(=O)O)CC1 [Example 817, (1r,2′S,4S)-5′-bromo-4-(3-chloroanilino)-6′-ethoxy-2′-[(2R)-2-methyl-3-{[(5R)-5-methyl-5,6,7,8-tetrahydroquinolin-4-yl]oxy}propyl]-2′,3′-dihydrospiro[cyclohexane-1,1′-indene]-4-carboxylic acid] | 0.229 | 165 |  | 
7 | CC(C)COc1ccc2c(c1)[C@]1(CC[C@@](Nc3cccc(Cl)c3)(C(=O)O)CC1)[C@@H](C[C@@H](C)COc1ccnc3c1[C@H](C)CCC3)C2 [Example 788, (1r,2′S,4S)-4-(3-chloroanilino)-2′-[(2R)-2-methyl-3-{[(5R)-5-methyl-5,6,7,8-tetrahydroquinolin-4-yl]oxy}propyl]-6′-(2-methylpropoxy)-2′,3′-dihydrospiro[cyclohexane-1,1′-indene]-4-carboxylic acid] | 0.241 | 262 |  | 
8 | C[C@@H](COc1ccnc2c1[C@H](C)CCC2)C[C@H]1Cc2ccc(OC3CCCC3)cc2[C@]12CC[C@@](Nc1cccc(Cl)c1)(C(=O)O)CC2 [Example 789, (1r,2′S,4S)-4-(3-chloroanilino)-6′-(cyclopentyloxy)-2′-[(2R)-2-methyl-3-{[(5R)-5-methyl-5,6,7,8-tetrahydroquinolin-4-yl]oxy}propyl]-2′,3′-dihydrospiro[cyclohexane-1,1′-indene]-4-carboxylic acid] | 0.135 | 270 |  | 
9 | C[C@@H](COc1ccnc2c1[C@H](C)CCC2)CN1Cc2ccccc2[C@]12CC[C@@](Nc1cccc(Cl)c1)(C(=O)O)CC2 [Example 40, (1s,4S)-4-(3-chloroanilino)-2′-[(2R)-2-methyl-3-{[(5R)-5-methyl-5,6,7,8-tetrahydroquinolin-4-yl]oxy}propyl]-2′,3′-dihydrospiro[cyclohexane-1,1′-isoindole]-4-carboxylic acid] |  | 280 | 0.981 | 
10 | Cc1c(Cl)cccc1N[C@]1(C(=O)O)CC[C@@]2(CC1)c1cc3c(cc1CN2C[C@@H](C)COc1ccnc2c1[C@H](C)CCC2)OCO3 [Example 50, (1r,4R)-4-(3-chloro-2-methylanilino)-6′-[(2R)-2-methyl-3-{[(5R)-5-methyl-5,6,7,8-tetrahydroquinolin-4-yl]oxy}propyl]-6′,7′-dihydro-2′H-spiro[cyclohexane-1,5′-[1,3]dioxolo[4,5-f]isoindole]-4-carboxylic acid] |  | 13500 | 72 | 
11 | COC[C@@H]1C[C@H]1c1ccc2c(c1)[C@]1(CC[C@@](Nc3cccc(Cl)c3)(C(=O)O)CC1)[C@@H](C[C@@H](C)COc1ccnc3c1[C@H](C)CCC3)C2 [Example 875, (1r,2′S,4S)-4-(3-chloroanilino)-6′-[(1R,2R)-2-(methoxymethyl)cyclopropyl]-2′-[(2R)-2-methyl-3-{[(5R)-5-methyl-5,6,7,8-tetrahydroquinolin-4-yl]oxy}propyl]-2′,3′-dihydrospiro[cyclohexane-1,1′-indene]-4-carboxylic acid] | 0.0843 | 59.7 |  | 
12 | Cc1oc(=O)oc1COC(=O)[C@]1(Nc2cccc(Cl)c2)CC[C@@]2(CC1)c1cc3c(cc1C[C@@H]2C[C@@H](C)COc1ccnc2c1[C@H](C)CCC2)OCO3 [Example 938, (5-methyl-2-oxo-2H-1,3-dioxol-4-yl)methyl (1r,4S,6′S)-4-(3-chloroanilino)-6′-[(2R)-2-methyl-3-{[(5R)-5-methyl-5,6,7,8-tetrahydroquinolin-4-yl]oxy}propyl]-6′,7′-dihydro-2′H-spiro[cyclohexane-1,5′-indeno[5,6-d][1,3]dioxole]-4-carboxylate] | 2.43 | 44.2 |  | 
13 | C[C@@H](COc1ccnc2c1[C@H](C)CCC2)C[C@H]1Cc2cc3c(cc2[C@]12CC[C@@](Nc1cccc(Cl)c1)(C(=O)OCOP(=O)(O)O)CC2)OCO3 [Example 952, (phosphonooxy)methyl (1r,4S,6′S)-4-(3-chloroanilino)-6′-[(2R)-2-methyl-3-{[(5R)-5-methyl-5,6,7,8-tetrahydroquinolin-4-yl]oxy}propyl]-6′,7′-dihydro-2′H-spiro[cyclohexane-1,5′-indeno[5,6-d][1,3]dioxole]-4-carboxylate] | 0.371 | 96 |  | 
14 | COc1ccccc1-c1ccc2c(c1)[C@]1(CC[C@@](Nc3cccc(Cl)c3)(C(=O)O)CC1)[C@@H](C[C@@H](C)COc1ccnc3c1[C@H](C)CCC3)C2 [Example 876, (1r,2′S,4S)-4-(3-chloroanilino)-6′-(2-methoxyphenyl)-2′-[(2R)-2-methyl-3-{[(5R)-5-methyl-5,6,7,8-tetrahydroquinolin-4-yl]oxy}propyl]-2′,3′-dihydrospiro[cyclohexane-1,1′-indene]-4-carboxylic acid] | 0.399 | 307 |  | 
15 | COc1cccc(-c2ccc3c(c2)[C@]2(CC[C@@](Nc4cccc(Cl)c4)(C(=O)O)CC2)[C@@H](C[C@@H](C)COc2ccnc4c2[C@H](C)CCC4)C3)c1 [Example 877, (1r,2′S,4S)-4-(3-chloroanilino)-6′-(3-methoxyphenyl)-2′-[(2R)-2-methyl-3-{[(5R)-5-methyl-5,6,7,8-tetrahydroquinolin-4-yl]oxy}propyl]-2′,3′-dihydrospiro[cyclohexane-1,1′-indene]-4-carboxylic acid] | 0.642 | 505 |  | 
16 | CCC1Oc2cc3c(cc2O1)[C@]1(CC[C@@](Nc2cccc(Cl)c2)(C(=O)O)CC1)[C@@H](C[C@@H](C)COc1ccnc2c1[C@H](C)CCC2)C3 (single isomer, unassigned) [Example 968] | 0.0405 |  |  | 72.7
17 | CC(c1ccc(O)cc1)c1ccc2c(c1)[C@]1(CC[C@@](Nc3cccc(Cl)c3)(C(=O)O)CC1)[C@@H](C[C@@H](C)COc1ccnc3c1[C@H](C)CCC3)C2 (stereo partly drawn) [Example 885, (1r,2′S,4S)-4-(3-chloroanilino)-6′-[1-(4-hydroxyphenyl)ethyl]-2′-[(2R)-2-methyl-3-{[(5R)-5-methyl-5,6,7,8-tetrahydroquinolin-4-yl]oxy}propyl]-2′,3′-dihydrospiro[cyclohexane-1,1′-indene]-4-carboxylic acid] | 2.03 | 341 |  | 
18 | C[C@@H](COc1c(Cl)cnc2c1[C@H](C)CCC2)C[C@H]1Cc2cc3c(cc2[C@]12CC[C@@](Nc1ccc(F)c(Cl)c1)(C(=O)O)CC2)OCO3 [Example 886, (1r,4S,6′S)-4-(3-chloro-4-fluoroanilino)-6′-[(2R)-3-{[(5R)-3-chloro-5-methyl-5,6,7,8-tetrahydroquinolin-4-yl]oxy}-2-methylpropyl]-6′,7′-dihydro-2′H-spiro[cyclohexane-1,5′-indeno[5,6-d][1,3]dioxole]-4-carboxylic acid] | 0.145 | 381 |  | 
